Each structure is given as a SMILES string.

The data set can be described thus: physchem.

In general, pKa refers to the pH at which an ionisable group is half protonated. A high value points to a weaker acid or stronger base. In the case of `NS(=O)(=O)c1cc(C(=O)Cn2cnc3ccccc32)ccc1Cl`, the pKa is 8.8. The figure for `Cc1nc2ccccc2n1CC(=O)c1ccc(Cl)c(S(N)(=O)=O)c1` is 8.8; for `CCc1nc2ccccc2n1CC(=O)c1ccc(Cl)c(S(N)(=O)=O)c1` it is 8.8; for `NS(=O)(=O)c1cc(C(=O)CN2CCCc3ccccc32)ccc1Cl` it is 8.8. The same measure for `NS(=O)(=O)c1cc(C(=O)Cn2ccnc2)ccc1Cl`: 8.8; for `NS(=O)(=O)c1cc(C(=O)Cn2ccnc2-c2ccccc2)ccc1Cl`: 8.8.

As for `Cc1cc2ncn(CC(=O)c3ccc(Cl)c(S(N)(=O)=O)c3)c2cc1C`, the pKa is 8.8. Molecule `NS(=O)(=O)c1cc(C(=O)Nn2cnc3ccccc32)c(SC2CCCCC2)cc1Cl` showed a pKa of 8.8. The same measure for `NS(=O)(=O)c1cc(C(=O)Cn2cnc3ccccc32)c(Cl)cc1Cl`: 8.3; for `Cc1cc2ncn(CC(=O)c3cc(S(N)(=O)=O)c(Cl)cc3Sc3ccccc3)c2cc1C`: 8.8. The molecule `NS(=O)(=O)c1cc(C(=O)Nn2cnc3ccccc32)c(Cl)cc1Cl` came in with a pKa of 8.3. Molecule `CCc1nccn1CC(=O)c1ccc(Cl)c(S(N)(=O)=O)c1` registered a pKa of 8.8.

Regarding `Cc1cc2ncn(CC(=O)c3cc(S(N)(=O)=O)c(Cl)cc3Cl)c2cc1C`, the pKa worked out at 8.3. The same measure for `NS(=O)(=O)c1cc(C(=O)Cn2ccnc2)c(Cl)cc1Cl`: 8.3. The same measure for `NS(=O)(=O)c1cc(C(=O)Cn2cnc3ccccc32)c(SCCc2ccccc2)cc1Cl`: 8.8; for `NS(=O)(=O)c1cc(C(=O)CN2CCc3ccccc32)ccc1Cl`: 8.8.

Consider `NS(=O)(=O)c1cc(C(=O)Cn2cnc(-c3ccccc3)c2-c2ccccc2)ccc1Cl`, for which the pKa was found to be 8.8.

On to `NS(=O)(=O)c1cc(C(=O)Nn2cnc3ccccc32)c(Sc2ccccc2)cc1Cl`, for which the pKa was 8.8. In turn, `CC1Cc2ccccc2N1NC(=O)c1ccc(Cl)c(S(N)(=O)=O)c1` (centres undefined) [INDAPAMIDE] registered a pKa of 8.8.

The values are drawn from ChEMBL document CHEMBL4184200, “Benzimidazole design, synthesis, and docking to build selective carbonic anhydrase VA inhibitors” (Bioorg Med Chem, 2018).
